Measured values from patent US20040132188A1, “Use of non-complexing peptides for the preparation of a composition for transfection of a polynucleotide into a cell and compositions useful in gene therapy” (priority 2001, published 2004).
“Also recorded” adds a separate entry of the source. Square brackets hold non-standard residues; d marks the D form. Ends that are not written are not given here.

Legend:
[1] = Liposome leakage assay, POPC/cholesterol 3:2 liposomes; format: biochemical; details: for liposome leakage activity / calcein release: POPC/chol liposomes, pH 7
Text: FIG. 9: Liposome leakage assay. […] Emitted fluorescence was plotted against peptide concentration. […] C) Comparison of ppTG1, ppTG20 and ppTG21 at pH 7.
Leakage activity was plotted against peptide concentration.

HeLa cells = experiment: Transfection in vitro, luciferase plasmid pTG11236; format: cell-based; details: for transfection / gene transfer efficiency in vitro: 50 ng pTG11236, increasing amounts of peptide, day 1
Protocol: Cells were plated on 24 well plates at a density of 4×10^4 (293-EBNA ) or 7×10^4 (HeLa, Renca) cells/well in DMEM supplemented with 10% FCS. The next day, the medium was replaced by 200 μl serum-free DMEM and plasmid (PTG11056 or pTG11236)/peptide complexes or plasmid/peptide/lipid complexes were prepared in 30 μl 0.9% NaCl or 5% glucose. After 20 min at room temperature these complexes were added to the cells which were then incubated for 2-3 h at 37° C. and 5% CO2 before 1 ml serum-containing DMEM was added. Approximately 20 hours later, cells were lysed by addition of 100 μl 1× Promega lysis buffer, 20 μl of the lysates were analysed for luciferase activity. Proteins were quantified with the bicinchonic acid (BCA) colorimetric method (Smith, Anal. Biochem. 150 (1985), 76-85). […]
HeLa cells were seeded at a density of 6×10^4 cells on 24 well plates. The next day, cells were incubated with 200 μl serum-free medium, 30 μl of plasmid (50 ng)/peptide/lipid mixtures were added and incubated for 3 h at 37° C. in 5% CO2. 1 ml of DMEM+10% FCS was then added. The next day, the medium was removed and cells were washed with 500 μl of PBS and subsequently treated with 100 μl of Promega lysis buffer. Plates were stored at −80° C. until luciferase activity was measured of 20 μl of the cell lysate. The protein assay was performed using the Pierce BCA kit.
JTS1 was dissolved to 1 mg/ml in 1 mM NaOH and mixed with DNA diluted in 5% glucose. ppTG1 was then added to this solution. The pcTG90/DOPE ppTG1 mixtures were prepared as described in Example 6. Transfection assays were performed on HeLa cells with 50 ng of plasmid as described in Example 6.
The series of ppTG1 derivatives listed in Material and Methods were tested for their gene transfer efficiencies in Hela cells. 6×10^4 cells were transfected with 50 ng pTG11236 complexed with increasing amounts of peptide. Luciferase activity was analyzed day 1 after transfection. The results are shown in FIG. 10B (ppTG20, ppTG21), FIG. 10C (ppTG25, ppTG26, ppTG27), FIG. 10D (ppTG28 to ppTG33), FIG. 10E (PEG-ppTG1 and PEG-ppTG20), FIG. 10F (ppTG22 to ppTG24) and FIG. 10G (ppTG20-D).

[2] = Liposome leakage assay, POPC/cholesterol 3:2 liposomes; format: biochemical; details: POPC/chol liposomes, pH 5
[3] = pH 5 versus pH 7; cited from earlier work
B6SJL mice, lungs = experiment: In vivo gene transfer after intravenous injection, luciferase activity in the lungs; details: pTG11236/peptide complexes intravenously injected; for gene transfer efficiency in the lung: luciferase day 1
Protocol: Mice were sacrificed at day 1.
Lungs were tested for luciferase activity.

plasmid pTG11236 = experiment: Gel retardation assay (DNA binding activity)
Protocol: 3 μg of the plasmid pTG11236 were incubated with increasing amounts of the respective peptide in a final volume of 30 μl with 0.9% NaCl. After 20 min of incubation at room temperature, 6 μl 5× loading buffer (glycerol and bromphenol blue in TAE buffer) were added and 10 μl of these solutions were analyzed on a 1% agarose gel in the presence of ethidium bromide.
The ability of ppTG1 peptide to complex DNA was analyzed by gel retardation assays. […] After 20 minutes incubation at room temperature, loading buffer was added and 10 μl of the resulting solution were analyzed on a 1% agarose gel.
ppTG1 derivatives as they are indicated in Materials and Methods, were tested for their capacity to bind plasmid DNA by gel retardation assays.

RENCA tumors = experiment: In vivo gene transfer after intratumoral injection, luciferase activity in tumors; design: species or system B6D2 mice; details: 10 μg pTG11236, peptide at pH 8, intratumoral, day 1
Protocol: 4×10^5 RENCA cells (murine kidney tumor cells, ATCC) were injected subcutaneously into B6D2 mice to provoke tumor growth. When tumors reached a size of approximatively 30 mm^3, 30 μl of a 5% glucose solution, containing the luciferase expression plasmid DNA pTG11236 in presence or absence of peptide of the present invention were injected into the tumors. Mice were sacrificed at day 1 after injection, tumors were recovered and homogeinized. Luciferase activity was analyzed and expressed as RLU/g tumor.
The peptide ppTG21 was tested for its capacity to enhance plasmid transfer after intratumoral injection in RENCA tumor-bearing mice. Ten μg of the luciferase expression plasmid pTG11236 were mixed with increasing amounts (i.e. 0.1, 0.6, 3 or 15 micrograms) of ppTG21 at pH 8 (10 mM Tris pH 8). […] In paralell, experiments have been conducted in identical conditions by administering the same plasmid DNA in the presence of increasing amounts (i.e. 0.1%, 0.2%, 0.4% and 0.6 %) of HPC (Hexadecyl-phospho-choline). Plasmid DNA alone, or plasmid DNA in the presence of HPC or ppTG21 were intratumorally injected in similar conditions. Next day, luciferase activities in the tumors was determined (RLU/g tumour).

[4] = 50 ng pTG11236 complexed with 0.9 μg ppTG1 and 0.1 μg JTS1, final charge ratio 5

Substance	liposome leakage activity / calcein release [1]	transfection / gene transfer efficiency in vitro (HeLa cells; HeLa cells)	also measured
CGLFKALLKLLKSLWKLLLKA	slightly reduced	–	–
CGLFKALLKLLKSLWKLLLKAC (cysteine pairing not given here)	slightly reduced	–	–
GIFKAIIKIIKSIWKIIIKA	–	diminished; also recorded: reduced	–
GIFRAIIRIIRSIWRIIIRA	slightly reduced	diminished; also recorded: reduced	–
GLFEALLELLESLWELLLEA [reference compound]	reduced	–	liposome leakage activity / calcein release [2]: high lysis activity; increase of luciferase activity versus best formulation of ppTG1/pcTG90/DOPE (HeLa cells; [4]): about 10 factor; increase of luciferase activity versus pcTG90/DOPE alone (HeLa cells; [4]): about 1000 factor; lysing of calcein containing phosphatidylcholine liposomes [3]: more efficiently than at a pH 7
GLFEALLELLESLWELLLEACCYKAKKKKKKKKWKKKKQS (cysteine pairing not given here) [reference compound]	impeded in calcein release	–	liposome leakage activity / calcein release [2]: low level release; gene transfer efficiency in the lung (B6SJL mice, lungs): low; transfection (HeLa cells; 0.05 μg plasmid DNA): remains low; retardation of pTG11236 (plasmid pTG11236; 3 μg (0.6 nmol) peptide, 3 μg pTG11236): > 95%
GLFHALLHLLHSLWHLLLHA	comparable to ppTG1	strongly reduced	binding to plasmid DNA (plasmid pTG11236; pH 5): binds plasmid DNA; also recorded: can bind DNA; binding to plasmid DNA (plasmid pTG11236; pH 8): not capable to bind to plasmid DNA; gene expression (luciferase) in tumors after co-injection with plasmid (RENCA tumors): increase of apparent gene expression; also recorded: dramatic improvement of the nucleic acid transfer efficiency
GLFKKLLKLLKKLWKLLLKA	comparable to ppTG1 and ppTG20; also recorded: slightly reduced	comparable to ppTG1 and ppTG20; also recorded: did not change	–
GLFRALLRLLRSLWRLLLRA [ppTG20]	–	–	toxicity (B6SJL mice, lungs): less toxic than ppTG1
GLFRRLLRLLRRLWRLLLRA	comparable to ppTG1 and ppTG20; also recorded: slightly reduced	comparable to ppTG1 and ppTG20; also recorded: did not change	–
GVFKAVVKVVKSVWKVVVKA	diminished; also recorded: significantly reduced	diminished	gene transfer efficiency in the lung (B6SJL mice, lungs): drastically reduced; also recorded: did not lead to detectable reporter gene expression
GVFRAVVRVVRSVWRVVVRA	diminished; also recorded: significantly reduced	diminished	–
Gly-Leu-Phe-Arg-Ala-Leu-Leu-Arg-Leu-Leu-Arg-Ser-Leu-Trp-Arg-Leu-Leu-Leu-Arg-Ala (G[dL][dF][dR][dA][dL][dL][dR][dL][dL][dR][dS][dL][dW][dR][dL][dL][dL][dR][dA]) [ppTG20-D]	retained	retained; also recorded: as efficient as ppTG1	gene transfer efficiency in the lung (B6SJL mice, lungs): even higher than with ppTG1; also recorded: even more efficient than ppTG20
WEAKLAKALAKALAKHLAKALAKALKACEA [reference compound]	–	–	liposome leakage activity ([1]; POPC/Chol (3:2) liposomes, pH not separated (compared at pH 5 and pH 7)): no activity; also recorded: could not liberate calcein; gene transfer efficiency in the lung (B6SJL mice, lungs): undetectable; also recorded: inefficient; gene transfer at optimal charge ratio lower than for ppTG1 (HeLa cells; 50 ng pTG11236): 200 fold; gene transfer at optimal charge ratio lower than for ppTG1 (HeLa cells; 500 ng pTG11236): 4 fold; best (optimal) charge ratio for gene transfer (HeLa cells; HeLa cells, 50 ng and 500 ng pTG11236): 7
